As usually defined, the IC50 is the midpoint of a concentration-inhibition curve.

Like-named read-outs stand apart in the source and are kept apart here.

One test deals with T1, HIV-1-Protease (Human immunodeficiency virus type 1 group M subtype B, UniProt P04585).
T1 construct: Gereinigte HIV-Protease wurde mit synthetischem Peptid
Kind of test: HIV-specific protease enzyme test (purified HIV protease, synthetic peptide substrate, RP-HPLC analysis of cleavage products). In kind it is biochemical. The source says:
Es wurde überraschend gefunden, daß die Verbindungen der allgemeinen Formel (I) eine außerordentlich starke Wirkung gegen Retroviren besitzen. Dies wird mit einem HIV-spezifischen Protease-Enzymtest belegt.
Die Ergebnisse der unten aufgeführten Beispiele wurden nach dem in der folgenden Literaturangabe [vgl. Hansen, J., Billich, S., Schulze, T., Sukrow, S. and Mölling, K. (1988), EMBO Journal, Vol, 7, No. 6, pp. 1785 - 1791] beschriebenen HIV-Testsystem ermittelt: Gereinigte HIV-Protease wurde mit synthetischem Peptid, das eine Schnittstelle im Gag-Precursor-Protein imitiert und eine in vivo-Spaltstelle der HIV-Protease darstellt, inkubiert. Die entstandenen Spaltprodukte des synthetischen Peptids wurden über Reverse Phase High Performance Liquid Chromatography (RP-HPLC) analysiert. […]

The next test deals with HIV. Kind of test: HIV infection in cell culture (PBL), microscopic evaluation of syncytia formation. It is filed as cell-based. The conditions noted are these: HIV-infected normal human blood lymphocytes (PBL's), day 3 to 6 after infection; for PBL IC95: suppression of virus-induced syncytia; for IC50: Human immunodeficiency virus 1, Lymphocyte, 72 h, 50% suppression of virus-induced syncytia. As for the experimental part: HIV-Infektion in Zellkultur
Der HIV-Test wurde mit geringen Modifikationen nach der Methode von Pauwels et al. [vgl. Journal of Virological Methods 20, (1988), 309-321] durchgeführt.
Normale menschliche Blutlymphozyten (PBL's) wurden über Ficoll-Hypaque angereichert und im RPMI 1640, 20% fötales Kälberserum mit Phytohaemagglutinin (90 µg/ml) und Interleukin-2 (40 U/ml) stimuliert. Zur Infektion mit dem infektiösen HIV wurden PBL's pelletiert und das Zellpellet wurde anschließend in 1 ml HIV-Virusadsorptionslösung suspendiert und 1 Stunde bei 37°C inkubiert.
Die Virusadsorptionslösung wurde zentrifugiert und das infizierte Zellpellet in Wachstumsmedium aufgenommen, so daß 1 x 10^5 Zellen pro ml eingestellt waren. Die derart infizierten Zellen wurden zu 1 x 10^4 Zellen/Napf in die Näpfe von 96er Mikrotiterplatten pipettiert.
Die erste vertikale Reihe der Mikrotiterplatte enthielt nur Wachstumsmedium und Zellen, die nicht infiziert, aber ansonsten genauso wie oben beschrieben, behandelt worden waren (Zellkontrolle). Die zweite vertikale Reihe der Mikrotiterplatte erhielt nur HIV-infizierte Zellen (Viruskontrolle) in Wachstumsmedium. Die übrigen Näpfe enthielten die erfindungsgemäßen Verbindungen in unterschiedlichen Konzentrationen, ausgehend von den Näpfen der 3. vertikalen Reihe der Mikrotiterplatte, von der die Prüfsubstanzen in 2er Schritten 2^10fach verdünnt wurden.
Die Testansätze wurden so lange bei 37°C inkubiert, bis in der unbehandelten Viruskontrolle die für das HIV typische Syncytienbildung auftrat (zwischen Tag 3 und 6 nach Infektion), die dann mikroskopisch ausgewertet wurde. In der unbehandelten Viruskontrolle resultierten unter diesen Testbedingungen etwa 20 Syncytien, während die unbehandelte Zellkontrolle keine Syncytien aufwies.
Die IC50-Werte wurden als die Konzentration der behandelten und infizierten Zellen ermittelt, bei der 50% (ca. 10 Syncytien) der virusinduzierten Syncytien durch die Behandlung mit der erfindungsgemäßen Verbindung unterdrückt waren. […]

Setting [1] is: purified HIV protease, synthetic peptide imitating a Gag precursor cleavage site.
The mark [2] stands for this setting: purified HIV protease, synthetic peptide imitating a Gag precursor cleavage site, concentration giving 50% inhibition of protease activity, read-out: HIV-1-Protease-Inhibition IC50.

The compound `NC(=O)C[C@H](NC(=O)OC1CCOC1)C(=O)N[C@@H](Cc1ccccc1)[C@H](O)CN1[C@H](C(F)(F)F)C[C@@H]2CCC[C@@H]21` (stereo partly drawn) [Beispiel 1, (2S,3S)-3-(Tetrahydrofuran-3-yl-oxycarbonyl-L-asparaginyl)amino-1-[(S,S,S)-3-trifluormethyl-2-azabicyclo[3.3.0]octan-2-yl}-2-hydroxy-4-phenylbutan] gave a concentration for half-maximal inhibition (IC50) on HIV-1-Protease of 30 nM. Further, the “HIV-1-Protease-Inhibition IC95” value on HIV-1-Protease (setting [1]) is 3,8 x 10^-7 Mol/l. Further, in the test with HIV, the “PBL IC95” value is recorded as 3,5 x 10^-6 Mol/l and 2200 nM corresponded to half-maximal inhibition (IC50).

With `NC(=O)C[C@H](NC(=O)O[C@H]1CCOC1)C(=O)N[C@@H](Cc1ccccc1)[C@H](O)CN1[C@H](C(F)(F)F)C[C@@H]2CCC[C@@H]21` [Beispiel 2], on HIV-1-Protease (setting [1]), the “HIV-1-Protease-Inhibition IC95” value is 3,6 x 10^-9 Mol/l. For the same compound, on HIV-1-Protease (setting [2]), the IC50 was 0.27 nM. Further, in the test on HIV, the “PBL IC95” value was 3,5 x 10^-6 Mol/l and the midpoint of inhibition, the IC50, lay at 2000 nM.

On to `NC(=O)C[C@H](NC(=O)OC1CCS(=O)(=O)C1)C(=O)N[C@@H](Cc1ccccc1)[C@H](O)CN1[C@H](C(F)(F)F)C[C@@H]2CCC[C@@H]21` (stereo partly shown) [Beispiel 3], for which the concentration for half-maximal inhibition (IC50) on HIV-1-Protease (setting [2]) is 9.5 nM. In the test with HIV, the “PBL IC95” value is 1,9 x 10^-6 Mol/l and the IC50 was found to be 1200 nM.

Consider `NC(=O)C[C@H](NC(=O)OC1C=CS(=O)(=O)C1)C(=O)N[C@@H](Cc1ccccc1)[C@H](O)CN1[C@H](C(F)(F)F)C[C@@H]2CCC[C@@H]21` (stereo partly shown) [Beispiel 4], for which the “HIV-1-Protease-Inhibition IC95” value on HIV-1-Protease (setting [1]) was 3,9 x 10^-9 Mol/l. For the same compound, the IC50 was 2.1 nM at HIV-1-Protease (setting [2]) and above 16000 nM in the test on HIV.

`O=C(N[C@@H](Cc1ccccc1)[C@H](O)CN1[C@H](C(F)(F)F)C[C@@H]2CCC[C@@H]21)OC1CCOC1` (stereo partly drawn) [Beispiel 5, (2R,3S)-3-(Tetrahydrofuran-3-yl-oxycarbonyl)-amino-1-{(S,S,S)-3-trifluormethyl-2-azabicyclo[3.3.0]octan-2-yl}-2-hydroxy-4-phenylbutan] yielded a half-inhibitory concentration (IC50) against HIV-1-Protease of 4.1 nM. In addition, the “HIV-1-Protease-Inhibition IC95” value on HIV-1-Protease (setting [1]) is listed as 4,7 x 10^-8 Mol/l. Moreover, in the test with HIV, the “PBL IC95” value is on record as 2,2 x 10^-5 Mol/l and the half-maximal inhibitory concentration (IC50) was 14000 nM.

Consider `O=C(N[C@@H](Cc1ccccc1)[C@H](O)CN1[C@H](C(F)(F)F)C[C@@H]2CCC[C@@H]21)O[C@H]1CCOC1` [Beispiel 6], for which, at HIV-1-Protease (setting [1]), the “HIV-1-Protease-Inhibition IC95” value is on record as 5,0 x 10^-8 Mol/l. Also, at HIV-1-Protease (setting [2]), the IC50 came out at 25 nM. In the test on HIV, the “PBL IC95” value was 1,3 x 10^-5 Mol/l and the concentration for half-maximal inhibition (IC50) turned out to be 2800 nM.

Turning to `O=C(N[C@@H](Cc1ccccc1)[C@H](O)CN1[C@H](C(F)(F)F)C[C@@H]2CCC[C@@H]21)OC1CCS(=O)(=O)C1` (stereo partly shown) [Beispiel 7], the IC50 on HIV-1-Protease (setting [2]) came to 25 nM; with HIV it was 6200 nM.

As to `O=C(N[C@@H](Cc1ccccc1)[C@H](O)CN1[C@H](C(F)(F)F)C[C@@H]2CCC[C@@H]21)OC1C=CS(=O)(=O)C1` (stereo partly shown) [Beispiel 8], the “HIV-1-Protease-Inhibition IC95” value at HIV-1-Protease (setting [1]) is listed as 4,1 x 10^-8 Mol/l. Also, the concentration for half-maximal inhibition (IC50) on HIV-1-Protease (setting [2]) stood at 3.2 nM. Moreover, in the test on HIV, the “PBL IC95” value was above 2e-05 mol/L and it took 17000 nM to reach half-maximal inhibition (IC50).

Source of the values: patent publication EP0761667A1, “Heterocyclic substituted pseudopeptides” (BAYER AG, priority 1995, dated 1997).
